According to patent EP0393786B1, “New retro-inverse, one- or more bond bearing analogues of thymopentin, a method for synthesizing the same and their employment for the preparation of pharmaceutical” (SCLAVO S.p.A., priority 1989, dated 1990):

Key:
[1] = tested on: lymphocytes which secrete antibodies (PFC); test: Hemolysis plate test (PFC) according to Jerne and Nordin, in vivo immunostimulating activity; design: species or system inbred C3H/HeNCrlBr male mice; details: 100 ng of peptide p.o. two hours after SRBC i.v.; spleen lymphocytes after four days; IgM PFC
Experimental: In particular, the so-called "hemolysis plate test" has been employed (PFC) performed according to the procedure disclosed by Jerne and Nordin.
Said test is carried out by administering through intravenous route to inbred C3H/HeNCrlBr male mice (Calco-Italia) aged 10-12 weeks and of body weight about 25 g, a pyrogen-free saline solution (0.2 ml) containing 1-2 x 10⁸ blood red cells of ram (SRBC). After two hours, groups of three mice each are treated p.o. (intragastric intubation) with 0.2 ml of saline solution (control) or with 0.2 ml of saline solution containing 100 ng of the peptide under test. After four days, the mice are sacrificed and the spleens are drawn and mechanically disrupted to separate the lymphocytes. The lymphocytes so isolated are washed with minimal soil containing Earle salts (MEM) (3 x 15 ml) and then resuspended into the same soil (1 ml) at a final concentration of 150,000 cells. Each cell suspension (0.1 ml) is then diluted 1/100 with MEM soil, and 100 µl of each dilution is added in double to wells of microplates containing 25 µl of MEM soil, 25 µl of a 10 % solution of SRBC antigens and 25 µl of guinea-pig complement at a final dilution of 1/64. The whole suspension is immediately transferred by capillarity from each well onto overlapped glass holder-slides. Such slides, with their edges sealed by means of paraffin, are then put for incubation into a thermostatic chamber at 37°C for one hour.
At the end of such time, the direct hemolysis plates are counted by means of a light-contrast viewer, such plates pointing out the number of lymphocytes which secrete antibodies (PFC). The antibodies so put into evidence are of the class of the IgM's, which are proper of the primary antibody response.

[2] = Stability to enzymic hydrolysis in heparinized human plasma (half-life); details: for half-life, times as much as that of thymopentin: relative to thymopentin
Experimental: The incubations were carried out at 37°C, and the drawings of the plasmatic mixtures, each one of 100 µl, were stopped at the various times by addition of trifluoroacetic acid in the ratio of 10%, with successive centrifugation at 10,000 x g, for five minutes. A portion of the supernatant is subjected to chromatography under conditions suitable to put into evidence the change in concentration of the peptide tested at the various time.

CC(C)C(C(=O)N[C@H](CC(=O)O)NC(=O)[C@H](CCCCN)NC(=O)[C@@H](N)CCCNC(=N)N)C(=O)N[C@@H](Cc1ccc(O)cc1)C(=O)O (stereo partly drawn) [Example 2, CH₃COOH.H-Arg-Lys-gAsp-(R,S)mVal-Tyr-OH]
Plate formation % control [1]: 132 % control | half-life ([2]; human): 10 min | half-life, times as much as that of thymopentin [2]: about 7 times

H-Arg-Lys-Asp-Val-Tyr-OH [TP5, reference compound]
Plate formation % control [1]: 137 % control

CC(C)[C@@H](NC(=O)C(Cc1ccc(O)cc1)C(=O)O)NC(=O)[C@H](CC(=O)O)NC(=O)[C@H](CCCCN)NC(=O)[C@@H](N)CCCNC(=N)N (stereo partly drawn) [Example 3, [gVal⁴,(R,S)mTyr⁵]TP5]
Plate formation % control [1]: 190 % control | half-life ([2]; human): 2.5 min | half-life, times as much as that of thymopentin [2]: about 2 times

CC(C)[C@H](NC(=O)[C@H](CC(=O)O)NC(=O)C(CCCCN)C(=O)NC(N)CCCNC(=N)N)C(=O)N[C@@H](Cc1ccc(O)cc1)C(=O)O (some centres unmarked) [reference compound]
half-life ([2]; human): 22 min

CC(C)[C@@H](NC(=O)C(Cc1ccc(O)cc1)C(=O)O)NC(=O)[C@H](CC(=O)O)NC(=O)C(CCCCN)C(=O)N[C@@H](N)CCCNC(=N)N (stereo partly drawn) [Example 1, CH₃COOH.H-g-Arg-(R,S)mLys-Asp-gVal-(R,S)mTyr-OH]
Plate formation % control [1]: 196 % control | half-life ([2]; human): > 360 min | half-life ([2]; test parallel to thymopentin): > 360 min
